experiment: HIV MT-4 Serum Shift Antiviral Reporter Assay: To quantify the amount of protein binding to human serum, compounds were serially diluted (1:3) in DMSO and acoustically transferred onto 384-well assay plates via a Labcyte ECHO robot. Each plate contained up to 8 test compounds, including negative and positive controls, (DMSO, 5 μM AZT respectively). Assay plates were prepared in duplicate, and tested in either CCM (cell culture media) or HS/CCM (human serum/cell culture media). MT-4 cells were first pre-infected with pLai RLuc reporter virus for 2 h at 37° C., then further diluted in either CCM (RPMI media, 10% FBS, 1% P/S) or HS/CCM (RPMI media, 10% FBS, 50% HS, 1% P/S), and subsequently added to each plate using a Biotek Micro Flow dispenser. After a 72-h incubation in a humidified and temperature controlled incubator (37° C.), Renilla Glo (Promega) was added to all assay plates and chemiluminescence read using an Envision plate-reader. EC50 values were defined as the compound concentration that causes a 50% decrease in luminescence signal, and were calculated using a sigmoidal dose-response model to generate curve fits. To determine the amount of protein binding, EC50 fold shifts (or EC50 shifts) were calculated by dividing EC50 (HS/CCM)/EC50 (CCM).; conditions: not given

Row | EC50 | SMILES
1 | 1.4 nM | C[C@H]1C=C[C@H](C)N2CN1C(=O)c1c(O)c(=O)c(C(=O)NCc3c(F)cc(F)cc3F)cn12
2 | 1.9 nM | C[C@@H]1C=C[C@H](CF)N2CN1n1cc(C(=O)NCc3ccc(F)cc3F)c(=O)c(O)c1C2=O
3 | 1.8 nM | CO[C@@H]1C=C[C@H](C)N2CN1n1cc(C(=O)NCc3c(F)cc(F)cc3F)c(=O)c(O)c1C2=O
4 | 1.5 nM | C[C@@H]1CC[C@H](C)N2CN1n1cc(C(=O)NCc3ccc(F)cc3F)c(=O)c(O)c1C2=O

Row | SMILES | EC50
5 | C[C@H]1C=CC2(CCC2)N2CN1C(=O)c1c(O)c(=O)c(C(=O)NCc3c(F)cc(F)cc3F)cn12 | 3 nM

same assay, conditions: MT4, 2 h

Row | EC50 | SMILES
6 | 1.4 nM | CC1=C[C@H](C)N2CN([C@@H]1C)n1cc(C(=O)NCc3ccc(F)cc3F)c(=O)c(O)c1C2=O
7 | 1.5 nM | C[C@@H]1C[C@H](O)[C@H](O)CN2CN1n1cc(C(=O)NCc3ccc(F)cc3F)c(=O)c(O)c1C2=O

From ChEMBL document CHEMBL5729653, “Substituted pyridotriazine compounds and uses thereof” (2023)
